Experimental data taken from US11572362B2, “Pyrrolo[1,2-b]pyridazine derivatives” (Gilead Sciences, Inc., priority 2018, dated 2023).

Columns and labels:
[1] = biological target: IRAK4 (Homo sapiens (Human), UniProt Q9NWZ3); experiment: IRAK4 Biochemical Assay (TR-FRET/HTRF); settings: IRAK4 enzyme 0.75 nM, 500 μM ATP, 2 μM STK1 peptide, 120 min
Outline: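 Recombinant IRAK4 (0.75 nM) with 2 µM STK1 peptide and 500 µM ATP in pH 7.0 HEPES/Mg buffer; compound preincubated 15 min with enzyme and peptide, then 120 min reaction at room temperature. HTRF readout: cryptate anti-phospho-peptide antibody, 665/615 nm ratio; % inhibition against no-inhibitor and saturating-staurosporine controls.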

[2] = tested on: TNFα; experiment: IRAK4 Monocyte TNFα Cell Based Assay; settings: cryopreserved human monocytes, 50 pg/ml LPS, compound 1 hour pre-treatment, 4 hours stimulation, TNFα by TR-FRET
Outline: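 Monocytes at 5,000 cells/well were pre-treated with compound for 1 h at 37 °C (0.1% DMSO final), then stimulated with 50 pg/ml LPS for 4 h. Secreted TNFα in supernatant was measured by TR-FRET (665/615 ratio), expressed as % control relative to unstimulated and stimulated cells.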

Sequence of IRAK4 (Q9NWZ3 whole entry): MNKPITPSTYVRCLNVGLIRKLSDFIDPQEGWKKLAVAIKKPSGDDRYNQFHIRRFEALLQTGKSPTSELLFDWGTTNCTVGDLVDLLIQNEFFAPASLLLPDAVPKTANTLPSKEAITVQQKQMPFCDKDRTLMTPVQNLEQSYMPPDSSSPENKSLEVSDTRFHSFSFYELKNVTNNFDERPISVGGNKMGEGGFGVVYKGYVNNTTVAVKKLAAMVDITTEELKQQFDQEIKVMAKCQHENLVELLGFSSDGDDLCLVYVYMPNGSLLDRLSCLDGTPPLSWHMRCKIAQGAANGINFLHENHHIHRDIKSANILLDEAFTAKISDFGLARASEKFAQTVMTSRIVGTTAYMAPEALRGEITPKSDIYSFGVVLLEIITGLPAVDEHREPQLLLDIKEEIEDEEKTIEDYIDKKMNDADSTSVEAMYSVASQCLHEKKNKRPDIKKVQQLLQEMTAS

Row | IC50 [1] | EC50 [2] | EC50 ([2]; Monocyte) | Structure (SMILES)
1 | 0.639 nM | 31.3 nM | – | CC(C)(O)[C@H](F)CNC(=O)c1cnc(-c2ccc3cc(C#N)cnn23)cc1N[C@H]1CC[C@H](c2nnn(C(F)F)n2)CC1 [Compound 72, 6-(3-cyanopyrrolo[1,2-b]pyridazin-7-yl)-4-(((1r,4R)-4-(2-(difluoromethyl)-2H-tetrazol-5-yl)cyclohexyl)amino)-N-((R)-2-fluoro-3-hydroxy-3-methylbutyl)nicotinamide]
2 | < 1 nM | – | 25 nM | CC(C)(O)[C@H](F)CNC(=O)c1cnc(-c2ccc3cc(C#N)cnn23)cc1N[C@H]1CC[C@H](c2cccnc2)CC1 [Compound 55, 6-(3-cyanopyrrolo[1,2-b]pyridazin-7-yl)-N-((R)-2-fluoro-3-hydroxy-3-methylbutyl)-4-(((1r,4R)-4-(pyridin-3-yl)cyclohexyl)amino)nicotinamide]
3 | < 1 nM | – | 38 nM | CC(C)(O)[C@H](F)CNC(=O)c1cnc(-c2ccc3cc(C#N)cnn23)cc1NC12CCC(N3CCC(F)(F)CC3)(CC1)CC2 [Compound 68, (R)-6-(3-cyanopyrrolo[1,2-b]pyridazin-7-yl)-4-((4-(4,4-difluoropiperidin-1-yl)bicyclo[2.2.2]octan-1-yl)amino)-N-(2-fluoro-3-hydroxy-3-methylbutyl)nicotinamide]
4 | < 1 nM | – | 27 nM | CC(C)(O)[C@H](F)CNC(=O)c1cnc(-c2ccc3cc(C#N)cnn23)cc1N[C@H]1CC[C@H](c2nnc(C(F)F)s2)CC1 [Compound 53, 6-(3-cyanopyrrolo[1,2-b]pyridazin-7-yl)-4-(((1r,4R)-4-(5-(difluoromethyl)-1,3,4-thiadiazol-2-yl)cyclohexyl)amino)-N-((R)-2-fluoro-3-hydroxy-3-methylbutyl)nicotinamide]
5 | 1 nM | – | 21 nM | CC(C)(O)[C@H](F)CNC(=O)c1cnc(-c2ccc3cc(C#N)cnn23)cc1NC1CCC(c2cnc(C(F)F)nc2)CC1 (stereo partly drawn) [Compound 59, (R)-6-(3-cyanopyrrolo[1,2-b]pyridazin-7-yl)-4-((4-(2-(difluoromethyl)pyrimidin-5-yl)cyclohexyl)amino)-N-(2-fluoro-3-hydroxy-3-methylbutyl)nicotinamide]
6 | < 1 nM | – | 39 nM | CC(C)(O)[C@H](F)CNC(=O)c1cnc(-c2ccc3cc(C#N)cnn23)cc1N[C@@H]1CC[C@@H](c2nnc(C(F)F)o2)OC1 [Compound 63, 6-(3-cyanopyrrolo[1,2-b]pyridazin-7-yl)-4-(((3R,6S)-6-(5-(difluoromethyl)-1,3,4-oxadiazol-2-yl)tetrahydro-2H-pyran-3-yl)amino)-N-((R)-2-fluoro-3-hydroxy-3-methylbutyl)nicotinamide]
7 | < 1 nM | – | 19 nM | CC(C)(O)[C@H](F)CNC(=O)c1cnc(-c2ccc3cc(C#N)cnn23)cc1NC12CCC(c3nnc(C(F)F)o3)(CC1)CC2 [Compound 62, (R)-6-(3-cyanopyrrolo[1,2-b]pyridazin-7-yl)-4-((4-(5-(difluoromethyl)-1,3,4-oxadiazol-2-yl)bicyclo[2.2.2]octan-1-yl)amino)-N-(2-fluoro-3-hydroxy-3-methylbutyl)nicotinamide]

Further lines, the compound ahead of its results:

Row | Structure (SMILES) | IC50 [1] | EC50 [2] | EC50 ([2]; Monocyte)
8 | CC(C)(O)[C@H](F)CNC(=O)c1cnc(-c2ccc3cc(C#N)cnn23)cc1N[C@H]1CC[C@H](n2cnnn2)CC1 [Compound 38, 4-(((1r,4R)-4-(1H-tetrazol-1-yl)cyclohexyl)amino)-6-(3-cyanopyrrolo[1,2-b]pyridazin-7-yl)-N-((R)-2-fluoro-3-hydroxy-3-methylbutyl)nicotinamide] | < 1 nM | – | 24 nM
9 | CC(C)(O)[C@H](F)CNC(=O)c1cnc(-c2ccc3cc(C#N)cnn23)cc1N[C@H]1CC[C@H](c2ncn(C(F)F)n2)CC1 [Compound 22, 6-(3-cyanopyrrolo[1,2-b]pyridazin-7-yl)-4-(((1r,4R)-4-(1-(difluoromethyl)-1H-1,2,4-triazol-3-yl)cyclohexyl)amino)-N-((R)-2-fluoro-3-hydroxy-3-methylbutyl)nicotinamide] | 2 nM | – | 67 nM
10 | CC(C)(O)[C@H](F)CNC(=O)c1cnc(-c2ccc3cc(C#N)cnn23)cc1N[C@H]1CC[C@H](n2cc(C3COC3)nn2)CC1 [Compound 33, 6-(3-cyanopyrrolo[1,2-b]pyridazin-7-yl)-N-((R)-2-fluoro-3-hydroxy-3-methylbutyl)-4-(((1r,4R)-4-(4-(oxetan-3-yl)-1H-1,2,3-triazol-1-yl)cyclohexyl)amino)nicotinamide] | 1 nM | – | 200 nM
11 | CC(C)(O)[C@H](F)CNC(=O)c1cnc(-c2ccc3cc(C#N)cnn23)cc1N[C@H]1CC[C@H](c2cn[nH]c2)CC1 [Compound 1, 4-(((1r,4R)-4-(1H-pyrazol-4-yl)cyclohexyl)amino)-6-(3-cyanopyrrolo[1,2-b]pyridazin-7-yl)-N-((R)-2-fluoro-3-hydroxy-3-methylbutyl)nicotinamide] | < 1 nM | – | 4 nM
12 | CC(C)(O)[C@H](F)CNC(=O)c1cnc(-c2ccc3cc(C#N)cnn23)cc1N[C@H]1CC[C@H](c2cn(C(F)F)cn2)CC1 [Compound 17, 6-(3-cyanopyrrolo[1,2-b]pyridazin-7-yl)-4-(((1r,4R)-4-(1-(difluoromethyl)-1H-imidazol-4-yl)cyclohexyl)amino)-N-((R)-2-fluoro-3-hydroxy-3-methylbutyl)nicotinamide] | 1 nM | – | 33 nM
13 | Cn1nnnc1[C@H]1CC[C@H](Nc2cc(-c3ccc4cc(C#N)cnn34)ncc2C(=O)NC[C@@H](F)C(C)(C)O)CC1 [Compound 16, 6-(3-cyanopyrrolo[1,2-b]pyridazin-7-yl)-N-((R)-2-fluoro-3-hydroxy-3-methylbutyl)-4-(((1r,4R)-4-(1-methyl-1H-tetrazol-5-yl)cyclohexyl)amino)nicotinamide] | < 1 nM | – | 26 nM
14 | CC(C)(O)[C@H](F)CNC(=O)c1cnc(-c2ccc3cc(C#N)cnn23)cc1N[C@H]1CC[C@H](n2ccnn2)CC1 [Compound 31, 4-(((1r,4R)-4-(1H-1,2,3-triazol-1-yl)cyclohexyl)amino)-6-(3-cyanopyrrolo[1,2-b]pyridazin-7-yl)-N-((R)-2-fluoro-3-hydroxy-3-methylbutyl)nicotinamide] | 1 nM | – | 40 nM
15 | CC(C)(O)[C@H](F)CNC(=O)c1cnc(-c2ccc3cc(C#N)cnn23)cc1N[C@H]1CC[C@H](n2cnc(C(F)F)n2)CC1 [Compound 36, 6-(3-cyanopyrrolo[1,2-b]pyridazin-7-yl)-4-(((1r,4R)-4-(3-(difluoromethyl)-1H-1,2,4-triazol-1-yl)cyclohexyl)amino)-N-((R)-2-fluoro-3-hydroxy-3-methylbutyl)nicotinamide] | < 1 nM | – | 14 nM
16 | Cc1c(C2CCC(Nc3cc(-c4ccc5cc(C#N)cnn45)ncc3C(=O)NC[C@@H](F)C(C)(C)O)CC2)cnn1C(F)F (stereo partly drawn) [Compound 10, (R)-6-(3-cyanopyrrolo[1,2-b]pyridazin-7-yl)-4-((4-(1-(difluoromethyl)-5-methyl-1H-pyrazol-4-yl)cyclohexyl)amino)-N-(2-fluoro-3-hydroxy-3-methylbutyl)nicotinamide] | 8 nM | – | 55 nM
17 | CC(C)(O)[C@H](F)CNC(=O)c1cnc(-c2ccc3cc(C#N)cnn23)cc1N[C@H]1CC[C@H](c2ccn(C(F)F)n2)CC1 [Compound 8, 6-(3-cyanopyrrolo[1,2-b]pyridazin-7-yl)-4-(((1r,4R)-4-(1-(difluoromethyl)-1H-pyrazol-3-yl)cyclohexyl)amino)-N-((R)-2-fluoro-3-hydroxy-3-methylbutyl)nicotinamide] | 1 nM | – | 36 nM
18 | Cc1c([C@H]2CC[C@H](Nc3cc(-c4ccc5cc(C#N)cnn45)ncc3C(=O)NC[C@@H](F)C(C)(C)O)CC2)cnn1C(F)F [Compound 11, 6-(3-cyanopyrrolo[1,2-b]pyridazin-7-yl)-4-(((1r,4R)-4-(1-(difluoromethyl)-5-methyl-1H-pyrazol-4-yl)cyclohexyl)amino)-N-((R)-2-fluoro-3-hydroxy-3-methylbutyl)nicotinamide] | 1 nM | – | 17 nM
19 | Cc1ncoc1[C@@H]1CCC[C@@H](Nc2cc(-c3ccc4cc(C#N)cnn34)ncc2C(=O)NC[C@@H](F)C(C)(C)O)C1 [Compound 48, 6-(3-cyanopyrrolo[1,2-b]pyridazin-7-yl)-N-((R)-2-fluoro-3-hydroxy-3-methylbutyl)-4-(((1R,3R)-3-(4-methyloxazol-5-yl)cyclohexyl)amino)nicotinamide] | 10 nM | – | 1050 nM
20 | Cc1nnc([C@H]2CC[C@H](Nc3cc(-c4ccc5cc(C#N)cnn45)ncc3C(=O)NC[C@@H](F)C(C)(C)O)CC2)s1 [Compound 52, 6-(3-cyanopyrrolo[1,2-b]pyridazin-7-yl)-N-((R)-2-fluoro-3-hydroxy-3-methylbutyl)-4-(((1r,4R)-4-(5-methyl-1,3,4-thiadiazol-2-yl)cyclohexyl)amino)nicotinamide] | 1 nM | – | 50 nM
21 | CC(C)(O)[C@H](F)CNC(=O)c1cnc(-c2ccc3cc(C#N)cnn23)cc1N[C@H]1CC[C@H](c2nnc(C(F)F)o2)CC1 [Compound 42, 6-(3-cyanopyrrolo[1,2-b]pyridazin-7-yl)-4-(((1r,4R)-4-(5-(difluoromethyl)-1,3,4-oxadiazol-2-yl)cyclohexyl)amino)-N-((R)-2-fluoro-3-hydroxy-3-methylbutyl)nicotinamide] | < 1 nM | – | 24 nM
